One experiment addresses T1, human GIP R (Homo sapiens, UniProt P48546).
T1 construct: expressed in transfected cells
T1 sequence (P48546 22-466): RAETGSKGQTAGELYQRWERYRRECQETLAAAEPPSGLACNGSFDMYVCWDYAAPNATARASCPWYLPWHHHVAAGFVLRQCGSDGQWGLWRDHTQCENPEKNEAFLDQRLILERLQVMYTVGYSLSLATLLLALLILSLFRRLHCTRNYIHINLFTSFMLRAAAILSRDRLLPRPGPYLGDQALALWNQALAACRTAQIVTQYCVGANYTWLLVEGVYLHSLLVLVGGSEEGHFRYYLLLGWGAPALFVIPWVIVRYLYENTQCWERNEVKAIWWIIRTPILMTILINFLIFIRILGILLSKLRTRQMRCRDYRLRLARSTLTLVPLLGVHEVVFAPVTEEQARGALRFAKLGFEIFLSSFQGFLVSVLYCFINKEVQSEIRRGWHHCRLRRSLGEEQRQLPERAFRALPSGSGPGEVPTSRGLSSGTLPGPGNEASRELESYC
In words: Human GIP receptor (GIP-R) activity assay, cAMP induction (AlphaScreen) in HEK293 cells. Particulars: average EC50, cAMP in HEK293 cells expressing human GIP R, read-out: GIP R (EC50 in nM). The class given is cell-based. (Bead proximity is the source of the signal in Alpha formats.)

For another experiment, the target named is human GCG R (Homo sapiens, UniProt P47871). To be noted: read-out: GCG R (EC50 in nM); Table 2; average EC50; cAMP in HEK293 cells expressing human GCG R.
human GCG R, sequence (P47871 26-477): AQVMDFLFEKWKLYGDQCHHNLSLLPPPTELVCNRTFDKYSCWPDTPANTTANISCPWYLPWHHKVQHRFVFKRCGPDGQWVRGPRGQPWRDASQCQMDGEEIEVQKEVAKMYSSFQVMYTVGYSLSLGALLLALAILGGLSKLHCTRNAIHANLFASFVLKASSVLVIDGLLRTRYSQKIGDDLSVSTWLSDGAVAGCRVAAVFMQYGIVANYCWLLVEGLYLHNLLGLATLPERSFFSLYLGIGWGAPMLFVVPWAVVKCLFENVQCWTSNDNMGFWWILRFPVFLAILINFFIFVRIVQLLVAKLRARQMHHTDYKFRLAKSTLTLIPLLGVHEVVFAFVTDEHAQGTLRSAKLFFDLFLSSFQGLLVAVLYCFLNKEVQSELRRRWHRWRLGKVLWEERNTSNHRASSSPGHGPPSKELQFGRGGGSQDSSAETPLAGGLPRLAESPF
The target of the next experiment is T2, human GLP-1 R (Homo sapiens, UniProt P43220).
T2 construct: expressed in transfected cells
T2 sequence (P43220 24-463): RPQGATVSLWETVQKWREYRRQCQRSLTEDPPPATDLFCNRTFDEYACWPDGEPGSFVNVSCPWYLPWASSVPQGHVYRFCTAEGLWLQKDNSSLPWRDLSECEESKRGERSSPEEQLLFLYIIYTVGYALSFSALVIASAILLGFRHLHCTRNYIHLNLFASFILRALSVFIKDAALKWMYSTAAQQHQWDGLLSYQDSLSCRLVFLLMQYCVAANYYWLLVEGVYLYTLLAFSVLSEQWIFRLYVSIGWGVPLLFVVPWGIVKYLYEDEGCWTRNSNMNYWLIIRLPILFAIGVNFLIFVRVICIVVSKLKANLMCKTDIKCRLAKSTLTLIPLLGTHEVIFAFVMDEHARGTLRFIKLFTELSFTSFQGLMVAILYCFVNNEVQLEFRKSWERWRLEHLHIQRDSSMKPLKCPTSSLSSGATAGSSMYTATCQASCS
The experiment can be described thus: Human GLP-1 receptor (GLP-1-R) activity assay, cAMP induction (AlphaScreen) in HEK293 cells. Particulars: average EC50, cAMP in HEK293 cells expressing human GLP-1 R, read-out: GLP1 R (EC50 in nM). In kind it is cell-based.

[1] abbreviates: Table 2b (most comprehensive data).

From patent US20210363213A1, “GLUCAGON-GLP-1-GIP TRIPLE AGONIST COMPOUNDS” (priority 2013, published 2021) come the findings set out here.

Where two headings read alike, the source gives them in different places. Numbered stars: 1 amine (or outer) side, 2 acyl side, 3 side chain; on linkers, the order of the positions; unused ones are H or OH. Square brackets hold non-standard residues; d marks the D form. Side chains are listed from the residue outwards. Peptide text beside a SMILES is read from it. * marks the point of attachment. C18 diacid = O=C(O)CCCCCCCCCCCCCCCCC(=O)*; γGlu = O=C(O)[C@H](CCC(=O)[*:2])N[*:1]; AEEA = NCCOCCOCC(=O)O; Aib = CC(C)(N)C(=O)O

Description for human GCG R: (§1) Briefly, HEK293 cells expressing the human GIP R, GLP-1 R or GCG R (stable cell lines generated through transfection of the cDNA for human GIP R, GLP-1 R or GCG R and selection of stable clones) were seeded at 30,000 cells/well in 96-well microtiter plates coated with 0.01% poly-L-lysine, and grown for 1 day in culture in 200 μl growth medium (DMEM, 10% FCS, Penicillin (100 IU/ml), Streptomycin (100 μg/ml)). On the day of analysis, growth medium was removed and the cells were washed once with 150 μl Tyrode's buffer (Tyrode's Salts (9.6 g/I), 10 mM HEPES, pH 7.4). […] The Assay buffer was removed and cells are lysed in 80 μl Lysis buffer (0.1% w/v BSA, 5 mM HEPES, 0.3% v/v Tween-20) per well. From each well 10 μl of lysed cells were transferred to a 384-well plate and mixed with 15 μl bead-mix (1 Unit/15 μl anti-cAMP Acceptor Beads, 1 Unit/15 μl Donor Beads, and 1 Unit/15 μl Biotinylated cAMP in Assay Buffer). The plates were mixed and incubated in the dark for an hour at room temperature before measuring using an Envision™ plate reader (Perkin-Elmer).
(§2) The resulting cAMP curves were plotted as absolute cAMP concentrations (nM) over log (test compound concentration) and analyzed using the curve fitting program XLfit.
Parameters calculated to describe both the potency as well as the agonistic activity of each test compound on the receptors were: […]
Description for human GIP R: as §1, §2
(§3) Parameters calculated to describe both the potency as well as the agonistic activity of each test compound on the receptors were:
(§4) EC50, a concentration resulting in a half-maximal elevation of cAMP levels, reflecting the potency of the test compound.
Description for human GLP-1 R: as §1, §2, §3, §4

As a reminder, the EC50 is the concentration at which the effect is half-maximal. For the compound `CC[C@H](C)[C@H](NC(=O)[C@H](CO)NC(=O)[C@H](Cc1ccc(O)cc1)NC(=O)[C@H](CC(=O)O)NC(=O)[C@H](CO)NC(=O)[C@@H](NC(=O)[C@H](Cc1ccccc1)NC(=O)[C@@H](NC(=O)CNC(=O)[C@H](CCC(N)=O)NC(=O)C(C)(C)NC(=O)[C@@H](N)Cc1ccc(O)cc1)[C@@H](C)O)[C@@H](C)O)C(=O)N[C@@H](Cc1ccc(O)cc1)C(=O)N[C@@H](CC(C)C)C(=O)N[C@@H](CCC(=O)O)C(=O)N[C@@H](CCCCN)C(=O)N[C@@H](CCCCN)C(=O)N[C@@H](C)C(=O)N[C@@H](C)C(=O)N[C@@H](Cc1c[nH]cn1)C(=O)N[C@@H](CC(=O)O)C(=O)N[C@@H](Cc1ccccc1)C(=O)N[C@H](C(=O)N[C@@H](CCC(=O)O)C(=O)N[C@@H](Cc1c[nH]c2ccccc12)C(=O)N[C@@H](CC(C)C)C(=O)N[C@@H](CC(C)C)C(=O)N[C@@H](CO)C(=O)N[C@@H](C)C(N)=O)C(C)C` [Compound 14] (HELM PEPTIDE1{Y.[Aib].Q.G.T.F.T.S.D.Y.S.I.Y.L.E.K.K.A.A.H.D.F.V.E.W.L.L.S.A.[am]}$$$$V2.0), the figures for the 50% effective concentration (EC50) on human GIP R (Table 2), on human GCG R and at human GLP-1 R (Table 2) were 0.06 nM, 0.1 nM and 0.013 nM, respectively.
`CC[C@H](C)[C@H](NC(=O)[C@H](CO)NC(=O)[C@H](Cc1ccc(O)cc1)NC(=O)[C@H](CC(=O)O)NC(=O)[C@H](CO)NC(=O)[C@@H](NC(=O)[C@H](Cc1ccccc1)NC(=O)[C@@H](NC(=O)CNC(=O)[C@H](CCC(N)=O)NC(=O)C(C)(C)NC(=O)[C@@H](N)Cc1ccc(O)cc1)[C@@H](C)O)[C@@H](C)O)C(=O)N[C@@H](Cc1ccc(O)cc1)C(=O)N[C@@H](CC(C)C)C(=O)N[C@@H](CCC(=O)O)C(=O)N[C@@H](CCCCN)C(=O)N[C@@H](CCCCN)C(=O)N[C@@H](C)C(=O)N[C@@H](C)C(=O)N[C@@H](Cc1c[nH]cn1)C(=O)N[C@@H](CC(=O)O)C(=O)N[C@@H](Cc1ccccc1)C(=O)N[C@H](C(=O)N[C@@H](CCC(=O)O)C(=O)N[C@@H](Cc1c[nH]c2ccccc12)C(=O)N[C@@H](CC(C)C)C(=O)N[C@@H](CC(C)C)C(=O)N[C@@H](CO)C(=O)N[C@@H](C)C(N)=O)C(C)C` [Compound 15] (HELM PEPTIDE1{Y.[Aib].Q.G.T.F.T.S.D.Y.S.I.Y.L.E.K.K.A.A.H.D.F.V.E.W.L.L.S.A.[am]}$$$$V2.0): the figures for the EC50 on human GIP R (Table 2), at human GCG R and on human GLP-1 R (Table 2) were 0.025 nM, 0.058 nM and 0.016 nM, respectively.
For the compound `CC[C@H](C)[C@H](NC(=O)[C@H](CO)NC(=O)[C@H](Cc1ccc(O)cc1)NC(=O)[C@H](CC(=O)O)NC(=O)[C@H](CO)NC(=O)[C@@H](NC(=O)[C@H](Cc1ccccc1)NC(=O)[C@@H](NC(=O)CNC(=O)[C@H](CCC(N)=O)NC(=O)C(C)(C)NC(=O)[C@@H](N)Cc1ccc(O)cc1)[C@@H](C)O)[C@@H](C)O)C(=O)N[C@@H](Cc1ccc(O)cc1)C(=O)N[C@@H](CC(C)C)C(=O)N[C@@H](CC(=O)O)C(=O)N[C@@H](CCCCN)C(=O)N[C@@H](CCCCNC(=O)COCCOCCNC(=O)COCCOCCNC(=O)CC[C@H](NC(=O)CCCCCCCCCCCCCCCCC(=O)O)C(=O)O)C(=O)N[C@@H](C)C(=O)N[C@@H](CCC(N)=O)C(=O)N[C@@H](CCCNC(=N)N)C(=O)N[C@@H](C)C(=O)N[C@@H](Cc1ccccc1)C(=O)N[C@H](C(=O)N[C@@H](CCC(=O)O)C(=O)N[C@@H](Cc1c[nH]c2ccccc12)C(=O)N[C@@H](CC(C)C)C(=O)N[C@@H](CC(C)C)C(=O)N[C@@H](C)C(=O)N[C@@H](CCC(N)=O)C(=O)NCC(=O)N1CCC[C@H]1C(=O)N[C@@H](CO)C(=O)N[C@@H](CO)C(=O)NCC(=O)N[C@@H](C)C(=O)N1CCC[C@H]1C(=O)N1CCC[C@H]1C(=O)N1CCC[C@H]1C(=O)N[C@@H](CO)C(N)=O)C(C)C` [Compound 33] (H-Y[Aib]QGTFTSDYSIYLDKK([AEEA-AEEA-γGlu-C18 diacid])AQRAFVEWLLAQGPSSGAPPPS-NH2), the EC50 at human GIP R (setting [1]) was 0.0099 nM; on human GLP-1 R (setting [1]), 0.0093 nM.
